Data from patent US20090263744A1, “ETHYLENICALLY UNSATURATED COMPOUND, LIGHT SENSITIVE COMPOSITION, LIGHT SENSITIVE PLANOGRAPHIC PRINTING PLATE MATERIAL AND PRINTING PROCESS EMPLOYING THE SAME” (priority 2005, published 2009).

Experiments:
[1] = Solubility of polymerizable monomer in 25° C. pure water (visual, no precipitations or oily separated components); assay type: physicochemical
Description: (§1) Herein, “dissolve” implies that no precipitations or oily separated components are visually observed under the following experimental conditions. Solubility in a 25° C. KOH aqueous solution having a pH of 12.5 or 25° C. pure water is represented by a value obtained by the following measuring method.
(§2) An ethylenically unsaturated compound is added to 20 ml of the solution or pure water described above at 25° C. in a 100 ml conical flask, stirred with a stirrer having a 1 cm long stirrer piece at a rate of 300 rpm for one hour, then allowed to stand for five minutes.
(§3) Solubility of polymerizable monomer to water or an alkali solution was measured according to the procedure described above.

[2] = Solubility of polymerizable monomer in alkali solution (25° C. KOH aqueous solution having a pH of 12.5); assay type: physicochemical; conditions: Table 3, pH 12.5
Description: as §1, §2, §3

C=CC(=O)OCC(CO)(COC(=O)C=C)COC(=O)C=C [PETA, Pentaerythritol triacrylate]
Solubility of polymerizable monomer weight % (water) ([1]; Table 2, water, 25° C.): 0.1 weight % | Solubility of polymerizable monomer, Pure water ([1]; Table 3, 25° C. pure water): 0.1 % by weight | Solubility of polymerizable monomer, Alkali solution [2]: 0.1 % by weight
